From US8394742B2, “Methods, compounds and compositions with genotype selective anticancer activity” (The Translation Genomics Research Institute, priority 2005, dated 2013)

How the values were obtained:
caspase-3 = assay: Caspase-3 activation analysis by Western blot; type: cell-based, human; conditions: BxPC-3-vector and BxPC-3-DPC4 cells, 25 μM, 24 hours
Procedure: FIG. 5A provides a graphic depiction of the Annexin V staining. The percentage of cells in the indicated M1 region was 4.6% in the untreated control and 8.2%, in the UA62001-treated (25 μM, 24 hours) BxPC-3 cells. FIG. 5B provides an image of the activation of pro-caspase-3 in BxPC-3 cells after UA62001 treatment. Whole cell extracts were prepared from BxPC-3-vector and BxPC-3-DPC4 cells after UA62001 (25 μM, 24 hours) treatment. Each lane was loaded with 20 μg of total protein. Camptothecin treated Jurkat cell lysate (20 μg) was loaded as the positive control. Lane 1, BxPC-3-DPC4; lane 2, BxPC-3-DPC4-UA62001; lane 3, BxPC-3-vector; lane 4, BxPC-3-vector-UA62001; lane 5, Jurkat-camptothecin.
Whole cell extracts were prepared using Nonidet P-40 (NP-40) lysis buffer (1% IGEPAL CA-630, a substitute for NP-40, 150 mM NaCl, 50 mM Tris-HCl [pH 7.4], 2 mM EDTA). […] Protein concentrations of the lysates or fractionates were determined using the BCA reagents (PIERCE). […] DPC4 protein was detected by a monoclonal antibody (Oncogene Research Products, Boston, Mass.). p21 protein was detected by a polyclonal antibody (Cell Signaling Technology, Beverly, Mass.). Both active and proto-form of the caspas-3 were detected by a polyclonal antibody obtained from BD Pharmingen (BD Biosciences Pharmingen, San Diego, Calif.). β-Actin, which served as a loading control was detected by a monoclonal antibody (Sigma). […]

BxPC-3 cells = assay: Cell cycle distribution analysis (propidium iodide, flow cytometry); type: cell-based, human; conditions: BxPC-3, 25 μM
Procedure: Cells (5×10^5) were plated in a T-25 tissue culture flask 24 hours prior to the drug treatment. […] After the treatment, the cells were harvested by trypsinization and centrifugation and then stained with propidium iodide (Sigma) in a modified Krishan buffer (20) for 4 hours at 4° C. The PI stained samples were then analyzed with a FACScan flow cytometer (BD Immunocytometry systems, San Jose, Calif.). Histograms were analyzed for cell cycle compartments and the percentage of cells at each phase of the cell cycle was calculated using CellQuest (BD Immunocytometry systems) analysis software.

HS766T (DPC4 deleted) = assay: MTS cell proliferation assay, HS766T cells; type: cell-based; conditions: Homo sapiens
Procedure: (§1) The inhibition of cell proliferation by library compounds was evaluated using the CellTiter 96 Non-Radioactive Cell Proliferation Assay following the protocol recommended by the manufacturer (Promega, Madison Wis.). Briefly, 2000 cells were seeded in each well of 96-well plates in 90 μl growth medium. Cells were allowed to attach overnight followed by addition of 10 μl of serially diluted compounds into the plates. After incubation for 4 days at 37° C. in a humidified incubator, 20 μl of a 20:1 mixture of (3-(4,5-dimethylthiazol-2-yl)-5-(3-carboxymethoxyphenyl)-2-(4-sulfophenyl)-2H-tetrazolium, inner salt (MTS, 2 mg/ml) and an electron coupling reagent, phenazine methosulfate (PMS, 0.92 mg/ml), was added to each well and incubated for 3 hours at 37° C. Absorbance was then measured using the Wallace Victor microplate reader at 490 nm (PerkinElmer, Wellesley, Mass.). Data were expressed as the percentage of cell growth calculated from the absorbance corrected for background absorbance. The surviving fraction of cells was determined by dividing the mean absorbance values of the treated samples by the mean absorbance values of the DMSO control.
(§2) After generating the isogenic cell lines for the DPC4 gene, Applicants then carried out a screening process using the cell lines with the aim to identify compounds that selectively kill cells with deficient DPC4 function. […]

Panc-1 (DPC4 wildtype) = assay: MTS cell proliferation assay, Panc-1 cells; type: cell-based; conditions: Homo sapiens
Procedure: as §1, §2

**Q.** With `O=C1c2ccccc2C(=O)c2c1ccc1c(=O)n(-c3ccccc3)[nH]c21` [UA62001, 2-phenyl-1H-Naphth [2,3-g]indazole-3,6,11(2H)-trione] as the molecule, how does the “cleavage of proto-form of caspase-3” value (caspase-3) read?
**A.** did not induce the cleavage

**Q.** What about the “cell population in S phase” value (BxPC-3 cells; 24 hours, control 33.6%) of the same molecule?
**A.** 55.6%

**Q.** And the “cell population in S phase” value (BxPC-3 cells; 48 hours, control 28.6%)?
**A.** 59.5%

**Q.** What about the “cell population in S phase” value (BxPC-3 cells; 72 hours, control 17.0%) of the same molecule?
**A.** 57.4%

**Q.** And the G2/M phase population (BxPC-3 cells; untreated control ~10%)?
**A.** ~20%

**Q.** What about the IC50 (HS766T (DPC4 deleted)) of the same molecule?
**A.** 3.1 µM

**Q.** What about the IC50 (Panc-1 (DPC4 wildtype)) of the same molecule?
**A.** 26 µM
